Experimental data as given in US9487515B2, “Compounds modulating c-fms and/or c-kit activity and uses therefor” (Plexxikon Inc., priority 2006, dated 2016).

target: c-kit (Homo sapiens, UniProt P10721); experiment: c-kit assays of Examples 40 and 41 (AlphaScreen kinase assays at 10 and 100 μM ATP, 33P-ATP filter assay, M-07e SCF-stimulated proliferation and phosphorylation)
Sequence (P10721 with tags, fused parts or gaps): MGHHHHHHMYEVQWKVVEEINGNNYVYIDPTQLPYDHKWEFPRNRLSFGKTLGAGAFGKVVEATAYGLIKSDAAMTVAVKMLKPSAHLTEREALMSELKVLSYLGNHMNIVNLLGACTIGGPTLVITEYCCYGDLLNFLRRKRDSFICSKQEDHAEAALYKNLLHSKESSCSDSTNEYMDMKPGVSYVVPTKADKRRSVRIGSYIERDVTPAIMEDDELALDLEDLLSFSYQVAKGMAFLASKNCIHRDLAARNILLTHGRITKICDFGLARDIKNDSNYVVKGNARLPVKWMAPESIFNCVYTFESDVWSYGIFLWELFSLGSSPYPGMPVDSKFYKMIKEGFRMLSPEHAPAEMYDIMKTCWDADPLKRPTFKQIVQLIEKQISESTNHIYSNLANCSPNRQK

Row | Structure (SMILES) | IC50 [nM]
1 | COc1ccc(CNc2ccc(Cc3c[nH]c4ncc(C#N)cc34)cn2)cn1 [P-0284, 3-{6-[(6-Methoxy-pyridin-3-ylmethyl)-amino]-pyridin-3-ylmethyl}-1H-pyrrolo[2,3-b]pyridine-5-carbonitrile] | < 1000
2 | Fc1ccc(CNc2nc(Cl)c(Cc3c[nH]c4ncc(Cl)cc34)s2)c(F)c1 [P-0245, [4-Chloro-5-(5-chloro-1H-pyrrolo[2,3-b]pyridin-3-ylmethyl)-thiazol-2-yl]-(2,4-difluoro-benzyl)-amine] | < 1000
3 | N#Cc1cnc2[nH]cc(Cc3ccc(NCc4ccc(Cl)cc4)nc3)c2c1 [P-0257, 3-[6-(4-Chloro-benzylamino)-pyridin-3-ylmethyl]-1H-pyrrolo[2,3-b]pyridine-5-carbonitrile] | < 1000
4 | COc1cnc2[nH]cc(Cc3ccc(NCc4c(F)cccc4F)nc3)c2c1 [P-0334, (2,6-Difluoro-benzyl)-[5-(5-methoxy-1H-pyrrolo[2,3-b]pyridin-3-ylmethyl)-pyridin-2-yl]-amine] | < 1000
5 | O=C(Nc1ccc(Cc2c[nH]c3ncccc23)cn1)c1ccc(F)c(Cl)c1 [P-0115, 3-Chloro-4-fluoro-N-[5-(1H-pyrrolo[2,3-b]pyridin-3-ylmethyl)-pyridin-2-yl]-benzamide] | < 1000
6 | Clc1cnc2[nH]cc(Cc3cnc(NCc4ccccc4Cl)nc3)c2c1 [P-0263, (2-Chloro-benzyl)-[5-(5-chloro-1H-pyrrolo[2,3-b]pyridin-3-ylmethyl)-pyrimidin-2-yl]-amine] | < 1000
7 | COc1ncccc1CNc1ccc(Cc2c[nH]c3ncc(C)cc23)cn1 [P-0285, (2-Methoxy-pyridin-3-ylmethyl)-[5-(5-methyl-1H-pyrrolo[2,3-b]pyridin-3-ylmethyl)-pyridin-2-yl]-amine] | < 1000
8 | Cc1cccc(C(=O)Nc2ccc(Cc3c[nH]c4ncccc34)cn2)c1 [P-0122, 3-Methyl-N-[5-(1H-pyrrolo[2,3-b]pyridin-3-ylmethyl)-pyridin-2-yl]-benzamide] | < 1000
9 | O=C(Nc1ccc(Cc2c[nH]c3ncccc23)cn1)c1ccc(F)c(F)c1 [P-0116, 3,4-Difluoro-N-[5-(1H-pyrrolo[2,3-b]pyridin-3-ylmethyl)-pyridin-2-yl]-benzamide] | < 1000
10 | Fc1nc(NCc2ccc(C(F)(F)F)nc2)ccc1Cc1c[nH]c2ncc(Cl)cc12 [P-0186, [5-(5-Chloro-1H-pyrrolo[2,3-b]pyridin-3-ylmethyl)-6-fluoro-pyridin-2-yl]-(6-trifluoromethyl-pyridin-3-ylmethyl)-amine] | < 1000

Further lines, results first:

Row | IC50 [nM] | Structure (SMILES)
11 | < 1000 | FC(F)(F)c1cccc(CNc2ccc(Cc3c[nH]c4ncccc34)cn2)c1Cl [P-0363, (2-Chloro-3-trifluoromethyl-benzyl)-[5-(1H-pyrrolo[2,3-b]pyridin-3-ylmethyl)-pyridin-2-yl]-amine]
12 | < 1000 | FC(F)(F)COc1ccc(CNc2ccc(Cc3c[nH]c4ncc(Cl)cc34)cn2)cn1 [P-0409, [5-(5-Chloro-1H-pyrrolo[2,3-b]pyridin-3-ylmethyl)-pyridin-2-yl]-[6-(2,2,2-trifluoro-ethoxy)-pyridin-3-ylmethyl]-amine]
13 | < 1000 | CN(C)CCCOc1ccccc1CNc1ccc(Cc2c[nH]c3ncccc23)cn1 [P-0369, [2-(3-Dimethylamino-propoxy)-benzyl]-[5-(1H-pyrrolo[2,3-b]pyridin-3-ylmethyl)-pyridin-2-yl]-amine]
14 | < 1000 | FC(F)(F)COc1ncccc1CNc1ccc(Cc2c[nH]c3ncccc23)cn1 [P-0376, [5-(1H-Pyrrolo[2,3-b]pyridin-3-ylmethyl)-pyridin-2-yl]-[2-(2,2,2-trifluoro-ethoxy)-pyridin-3-ylmethyl]-amine]
15 | < 1000 | Fc1c(Cl)cccc1CNc1ccc(Cc2c[nH]c3ncccc23)cn1 [P-0354, (3-Chloro-2-fluoro-benzyl)-[5-(1H-pyrrolo[2,3-b]pyridin-3-ylmethyl)-pyridin-2-yl]-amine]
16 | < 1000 | c1cnc(N2CCOCC2)c(CNc2ccc(Cc3c[nH]c4ncccc34)cn2)c1 [P-0347, (2-Morpholin-4-yl-pyridin-3-ylmethyl)-[5-(1H-pyrrolo[2,3-b]pyridin-3-ylmethyl)-pyridin-2-yl]-amine]
